US7935706B2, “Nitrogen-containing heterocycle derivatives substituted with cyclic group” (Shionogi & Co., Ltd., priority 2006, dated 2011)
Read-outs that look alike come from different tables or passages of the source.

How the values were obtained:
NR1/NR2B receptor = molecular target: T1, NR1/NR2B receptor (Rattus norvegicus, UniProt P35439+Q00960); assay: Test of binding with NMDA receptor (NR1/NR2B receptor): competition with [3H]-Ifenprodil on rat cerebral cortex membrane specimen
T1 construct: from tissue; host or cells: rat cerebral cortex membranes (male Slc: Wistar rat)
Description: Test of Binding with NMDR Receptor (NR1/NR2B Receptor)
Using Ifenprodil which is an antagonist specific for a NR1/NR2B subtype receptor as a ligand, an experiment of competition between a receptor and a test compound was performed.
Using a male Slc: Wistar rat as an animal, a brain was isolated after decapitation, and a cerebral cortex was fractionated. The cerebral cortex was homogenized with a 20-fold amount of an ice-cooled 50 mM Tris/HCl buffer (pH 7.4), and the homogenate was centrifuged at 4° C. and 27,500×g for 10 minutes. The resulting precipitate was suspended in the same buffer, and this was again centrifuged. This operation was repeated for three times, the resulting precipitate was suspended in a buffer, and this was stored at −80° C. Immediately before an experiment, the frozen suspension was thawed at room temperature, this was centrifuged at 4° C. and 27,500×g for 10 minutes, and the resulting precipitate was suspended in a buffer. Further, the suspension was diluted 10-fold with a buffer, and this was used as a membrane specimen in an experiment. In a binding experiment, to 470 μl of the membrane specimen were added […] of each of test compounds having different concentrations, 10 μl of a labeled ligand [^3H]-Ifenprodil and 10 μl GBR-12909, followed by incubation at an ice temperature for 120 minutes. A concentration of [^3H]-Ifenprodil of the labeled ligand was finally 5 nM, and a concentration of GBR-12909 was finally 3 μM. For measuring a total binding amount, DMSO as a solvent was used and, for measuring a non-specific binding amount, 100 μM Ifenprodil was used. GBR-12909 was added in order to block binding of [^3H]-Ifenprodil to non-polyamine-sensitive site. After incubation, a bound formand a free foramwere separated using Whatman GF/C filter (manufactured by Whatman), and the filter was washed with 2.5 ml ice-cooled buffer four times. The filter was immersed in liquid scintillation (Cryasol I, manufactured by Nacalai tesque), and radioactivity (dpm) was measured with a liquid scintillation counter. From a measured value, a binding inhibition rate (%) was obtained by the following equation, and a dose at which binding is inhibited 50% (IC50) was calculated. A formula of GBR-12909 (vanoxerine) is shown below.
Binding inhibition rate(%)=100−[(binding amount in the presence of test compound−non-specific binding amount)/(total binding amount−non-specific binding amount)]×100

[1] = molecular target: T2, NMDA receptor (NR1 subunit and NR2B subunit) (Mus musculus, UniProt P35438+Q01097); assay: Measurement of expression of NMDA receptor and Ca ion influx amount (glutamic acid/glycine-induced, HEK293 cell co-expressing NR1 and NR2B subunits, Fluo-3/AM); type: cell-based
T2 construct: expressed in transfected cells; host or cells: HEK293 cells, transient transfection with pcDNA3.1 plasmids
Description: Measurement of Expression of NMDA Receptor and Ca Ion Influx Amount
A complementary DNA (cDNA) of a mouse NMDA receptor subunit was transiently introduced into a HEK293 cell and, after 1 day from introduction, change in a glutamic acid/glycine-induced intracelluar Ca amount was measured using a Ca ion reactive fluorescent coloring matter.
The HEK293 cell was cultured, and passaged using a modified Dulbecco's Eagle medium (DMEM, low glucose).
The HEK293 cell (20,000/well) was seeded on a 96-well plate, a NR1 subunit and a NR2B subunit of the NMDA receptor incorporated into the pcDNA3.1 plasmid were transiently introduced into a cell, and the subunits were co-expressed. An introduction amount of a DNA was 0.025 μg in the case of the NR1 subunit, and 0.075 μg in the case of NR2B subunit per well. For the cell after introduction, cell death was inhibited using 50 μM of the NMDA receptor antagonist MK-801.
For adjusting a test compound and washing a cell, Krebs/Ringer/Hepes buffer (KRH, Ca: 5 mM) was used.
After 1 day from introduction, the NMDA receptor antagonist MK-801 was washed out using the KRH buffer, and a Ca ion indication fluorescent coloring matter Fluo-3/AM was made to be taken into the cell. Ca ion influx was induced with 20 μM glutamic acid/2 μM glycine. Change in a fluorescent amount due to Ca ion influx into the cell was measured at excitation of 480 nm using a fluorescent imaging system FDSS 3000.
From a measured value of the test compound, a Ca ion influx inhibition rate (%) was obtained by the following equation, and a dose at which influx is inhibited 50% (IC50) was calculated.
Ca ion influx inhibition rate(%)=100−[(fluorescent amount in the presence of test compound−background fluorescent amount)/(total fluorescent amount−background fluorescent)]×100

[2] = [3H]-Ifenprodil 5 nM, GBR-12909 3 μM, rat cerebral cortex membranes, ice temperature 120 minutes, read-out: NR2B (IC50 μM)
[3] = Ca ion influx induced with 20 μM glutamic acid/2 μM glycine, HEK293 cell with mouse NR1/NR2B, read-out: Ca2+ IC50
[4] = same binding test, read-out: IC50 (binding with NR1/NR2B receptor)
[5] = same Ca ion influx test, read-out: IC50 (Ca ion influx inhibition)

T2 sequence (Q01097 27-1482, other chains not shown): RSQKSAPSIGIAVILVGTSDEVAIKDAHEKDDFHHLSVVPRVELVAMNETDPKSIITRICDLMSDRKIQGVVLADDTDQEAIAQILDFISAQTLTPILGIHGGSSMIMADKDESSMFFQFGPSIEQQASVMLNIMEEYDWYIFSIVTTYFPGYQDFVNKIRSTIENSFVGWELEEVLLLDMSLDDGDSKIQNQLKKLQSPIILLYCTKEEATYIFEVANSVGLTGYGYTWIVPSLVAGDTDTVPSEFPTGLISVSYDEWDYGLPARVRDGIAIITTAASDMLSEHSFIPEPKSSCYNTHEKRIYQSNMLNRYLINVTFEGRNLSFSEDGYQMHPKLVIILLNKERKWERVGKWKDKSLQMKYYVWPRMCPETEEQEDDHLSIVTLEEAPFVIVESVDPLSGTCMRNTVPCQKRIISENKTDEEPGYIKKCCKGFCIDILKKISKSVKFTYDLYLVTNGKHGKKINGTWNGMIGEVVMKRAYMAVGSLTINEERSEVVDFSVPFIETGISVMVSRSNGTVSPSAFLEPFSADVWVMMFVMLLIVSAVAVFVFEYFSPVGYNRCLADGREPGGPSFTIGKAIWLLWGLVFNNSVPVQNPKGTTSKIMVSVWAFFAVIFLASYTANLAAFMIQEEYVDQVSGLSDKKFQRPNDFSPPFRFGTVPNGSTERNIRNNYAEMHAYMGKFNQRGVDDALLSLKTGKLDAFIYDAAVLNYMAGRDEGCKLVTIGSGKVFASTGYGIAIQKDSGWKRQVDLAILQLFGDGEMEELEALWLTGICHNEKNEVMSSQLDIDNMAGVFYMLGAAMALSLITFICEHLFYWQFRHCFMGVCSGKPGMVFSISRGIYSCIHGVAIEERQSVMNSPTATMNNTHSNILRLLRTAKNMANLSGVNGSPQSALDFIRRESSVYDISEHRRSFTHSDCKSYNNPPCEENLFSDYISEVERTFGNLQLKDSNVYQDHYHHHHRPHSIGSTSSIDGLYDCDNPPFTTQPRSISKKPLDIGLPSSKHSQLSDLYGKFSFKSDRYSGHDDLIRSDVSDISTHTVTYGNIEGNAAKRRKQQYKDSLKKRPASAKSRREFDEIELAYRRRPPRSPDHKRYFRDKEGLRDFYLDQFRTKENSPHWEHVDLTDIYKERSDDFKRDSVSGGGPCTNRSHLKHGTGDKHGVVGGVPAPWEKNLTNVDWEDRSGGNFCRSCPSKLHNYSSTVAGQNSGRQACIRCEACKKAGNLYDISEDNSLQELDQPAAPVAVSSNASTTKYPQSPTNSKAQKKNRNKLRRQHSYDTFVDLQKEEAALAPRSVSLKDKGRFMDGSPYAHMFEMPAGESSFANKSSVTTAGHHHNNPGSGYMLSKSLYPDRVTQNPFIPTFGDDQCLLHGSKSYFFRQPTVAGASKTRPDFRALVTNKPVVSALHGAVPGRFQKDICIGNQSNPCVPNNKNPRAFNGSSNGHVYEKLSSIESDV
T1 sequence (Q00960 27-1482, other chains not shown): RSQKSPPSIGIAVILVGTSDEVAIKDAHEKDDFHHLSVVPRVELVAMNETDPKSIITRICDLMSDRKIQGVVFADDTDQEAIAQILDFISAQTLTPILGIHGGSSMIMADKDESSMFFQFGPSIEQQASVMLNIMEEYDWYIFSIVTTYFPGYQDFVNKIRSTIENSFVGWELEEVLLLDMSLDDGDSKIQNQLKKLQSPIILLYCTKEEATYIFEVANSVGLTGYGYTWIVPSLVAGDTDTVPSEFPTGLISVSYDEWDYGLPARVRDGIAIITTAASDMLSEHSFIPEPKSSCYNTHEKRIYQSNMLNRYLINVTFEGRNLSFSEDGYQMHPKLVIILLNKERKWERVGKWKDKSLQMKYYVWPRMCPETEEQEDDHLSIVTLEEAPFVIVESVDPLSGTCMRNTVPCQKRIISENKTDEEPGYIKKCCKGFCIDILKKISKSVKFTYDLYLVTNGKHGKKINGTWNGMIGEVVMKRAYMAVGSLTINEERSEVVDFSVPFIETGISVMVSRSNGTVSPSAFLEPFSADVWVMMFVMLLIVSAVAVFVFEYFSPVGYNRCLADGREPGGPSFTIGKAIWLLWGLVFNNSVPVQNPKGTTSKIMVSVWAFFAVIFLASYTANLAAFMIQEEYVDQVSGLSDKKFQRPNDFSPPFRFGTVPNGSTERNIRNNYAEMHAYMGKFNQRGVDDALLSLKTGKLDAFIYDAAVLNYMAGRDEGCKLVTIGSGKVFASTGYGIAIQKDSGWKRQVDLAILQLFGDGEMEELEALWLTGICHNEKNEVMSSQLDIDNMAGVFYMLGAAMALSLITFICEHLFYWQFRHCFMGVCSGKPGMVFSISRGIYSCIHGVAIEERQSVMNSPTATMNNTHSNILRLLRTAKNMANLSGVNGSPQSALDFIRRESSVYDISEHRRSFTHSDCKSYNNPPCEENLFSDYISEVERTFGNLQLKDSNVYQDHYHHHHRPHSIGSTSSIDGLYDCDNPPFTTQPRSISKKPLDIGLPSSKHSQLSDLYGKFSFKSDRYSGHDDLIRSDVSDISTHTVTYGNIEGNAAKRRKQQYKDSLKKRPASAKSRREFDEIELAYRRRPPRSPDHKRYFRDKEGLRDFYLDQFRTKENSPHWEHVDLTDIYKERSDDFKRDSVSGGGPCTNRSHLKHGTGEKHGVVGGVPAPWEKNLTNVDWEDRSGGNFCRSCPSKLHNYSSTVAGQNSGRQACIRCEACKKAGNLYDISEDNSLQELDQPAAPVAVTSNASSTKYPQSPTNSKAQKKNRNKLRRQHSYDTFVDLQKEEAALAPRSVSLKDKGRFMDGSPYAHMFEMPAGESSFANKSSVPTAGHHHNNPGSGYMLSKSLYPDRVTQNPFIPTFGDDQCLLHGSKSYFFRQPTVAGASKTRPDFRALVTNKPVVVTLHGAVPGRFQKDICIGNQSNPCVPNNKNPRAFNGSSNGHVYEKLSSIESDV

Row | IC50 (NR1/NR2B receptor; [2]) [µM] | melting point | IC50 [1, 3] [nM] | IC50 (NR1/NR2B receptor; [4]) [µM] | IC50 [1, 5] [nM] | SMILES
1 | 0.043 | 232 to 234 °C |  |  |  | O=C(NCCC1CCN(c2ccc(Cl)cc2)CC1)c1ccc(=O)[nH]c1 [Compound I-1]
2 | 0.033 | 232 to 233 °C (dec.) | 14 |  |  | O=C(NCCC1CCN(c2ccc(C(F)(F)F)cc2)CC1)c1ccc(=O)[nH]c1 [Compound I-2]
3 | 0.043 | 236 to 238 °C (dec.) | 20 |  |  | O=C(NCCC1CCN(c2ccc(Br)cc2)CC1)c1ccc(=O)[nH]c1 [Compound I-5]
4 | 0.09 | 219 to 220 °C | 25 |  |  | O=C(C=C1CCN(c2ccc(C(F)(F)F)cn2)CC1)Nc1ccc2[nH]c(=O)sc2c1 [Compound I-66]
5 |  | 241 to 243 °C |  | ≤ 0.1 |  | O=C(Nc1ccc2[nH]c(=O)oc2c1)C(=O)N1CCN(c2ccc(Cl)cn2)CC1 [Compound I-204]
6 |  | 209 to 211 °C |  | ≤ 0.1 |  | O=C(C=C1CCN(c2ccc(F)c(Cl)c2)CC1)Nc1ccc2[nH]c(=O)oc2c1 [Compound I-205]
7 |  | 107 to 108 °C |  | ≤ 0.1 |  | C[C@@H]1CN(C(=O)C(=O)Nc2ccc3[nH]c(=O)oc3c2)CCN1c1ccc(F)c(Cl)c1 [Compound I-206]
8 |  | 230 to 232 °C |  | ≤ 0.1 | ≤ 100 | O=C(NCCC1CCN(c2ccc(Cl)c(F)c2)CC1)c1ccc(=O)[nH]c1 [Compound I-208]
9 |  | 197 to 198 °C |  | ≤ 0.1 | ≤ 100 | C[C@@H]1CN(C(=O)C(=O)Nc2ccc3[nH]c(=O)oc3c2)CCN1c1ccc(C(F)(F)F)cn1 [Compound I-209]
10 |  | 224 to 226 °C |  | ≤ 0.1 |  | COc1ccc(N2CCN(C(=O)C(=O)Nc3ccc4[nH]c(=O)oc4c3)CC2)cc1Cl [Compound I-247]
11 |  | 123 to 125 °C |  | ≤ 0.1 | ≤ 100 | COc1ccc(N2CCN(C(=O)C(=O)Nc3ccc4[nH]c(=O)oc4c3)[C@H](C)C2)cc1Cl [Compound I-249]
